Measurements taken from ChEMBL document CHEMBL3612061, “Imidazopyridines as a source of biological activity and their pharmacological potentials-Infrared and Raman spectroscopic evidence of their content in pharmaceuticals and plant materials” (Bioorg Med Chem, 2015).
Values after ≈ are worked out from the molar mass of the structure shown.

System: Vaccinia virus
Experiment: Antiviral activity against Vaccinia virus assessed as protection against virus-induced cytopathogenic effect by cell based assay
Assay type: functional
Conditions: Orthopoxvirus vaccinia; read-out: ID50 (the source's name)

Structure (SMILES): Nc1nccc2c1ncn2C1C=C(CO)C(O)C1O (stereo unspecified) [3-DEAZANEPLANOCIN A]
- IC50: 0.02 µg/mL (≈ 0.0763 µM)
